Source: PubChem BioAssay AID2060617 (Molecular Pharmacology Branch, DTP, NCI, 2025)
pIC50: −log10 of the molar value.

Tested on: 485368-065-R4-J2-PDC spheroids with HUVEC/MSC, viability
Assay: Anticancer human tumor 485368-065-R4-J2-PDC patient-derived pancreatic carcinoma cell line growth inhibition [CLK]
Details: for pIC50: curve of first compound; for viability, T/C: stronger effect = lower value
Procedure, shortened: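 Multi-cell-type spheroids combined patient-derived tumor cells with HUVEC endothelial cells and human mesenchymal stem cells. Paired agents were dosed in half-log steps down from about clinical Cmax, or from 10 microM where Cmax was unknown.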

[1] = second compound 0.0316 µM, first compound 0.0316 µM
[2] = second compound 0.0316 µM, first compound 0.1 µM
[3] = second compound 0.1 µM, first compound 0.0316 µM
[4] = second compound 0.1 µM, first compound 0.1 µM
[5] = second compound 0.316 µM, first compound 0.0316 µM
[6] = second compound 0.316 µM, first compound 0.1 µM
[7] = second compound 1 µM, first compound 0.0316 µM
[8] = second compound 1 µM, first compound 0.1 µM
[9] = second compound 3.16 µM, first compound 0.0316 µM
[10] = second compound 3.16 µM, first compound 0.1 µM
[11] = second compound 10 µM, first compound 0.0316 µM
[12] = second compound 10 µM, first compound 0.1 µM
[13] = second compound 0.0316 µM, first compound 0.316 µM
[14] = second compound 0.0316 µM, first compound 1 µM
[15] = second compound 0.0316 µM, first compound 3.16 µM
[16] = second compound 0.0316 µM, first compound 10 µM
[17] = second compound 0.1 µM, first compound 0.316 µM
[18] = second compound 0.1 µM, first compound 1 µM
[19] = second compound 0.1 µM, first compound 3.16 µM
[20] = second compound 0.1 µM, first compound 10 µM
[21] = second compound 0.316 µM, first compound 0.316 µM
[22] = second compound 0.316 µM, first compound 1 µM
[23] = second compound 0.316 µM, first compound 3.16 µM
[24] = second compound 0.316 µM, first compound 10 µM
[25] = second compound 1 µM, first compound 0.316 µM
[26] = second compound 1 µM, first compound 1 µM
[27] = second compound 1 µM, first compound 3.16 µM
[28] = second compound 1 µM, first compound 10 µM
[29] = second compound 3.16 µM, first compound 0.316 µM
[30] = second compound 3.16 µM, first compound 1 µM
[31] = second compound 3.16 µM, first compound 3.16 µM
[32] = second compound 3.16 µM, first compound 10 µM
[33] = second compound 10 µM, first compound 0.316 µM
[34] = second compound 10 µM, first compound 1 µM
[35] = second compound 10 µM, first compound 3.16 µM
[36] = second compound 10 µM, first compound 10 µM
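Further: spheroids exposed to compounds for seven days.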
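Wherever viability, T/C is given: 100% = DMSO vehicle control wells.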

Cn1ncnc1[C@H]1c2n[nH]c(=O)c3cc(F)cc(c23)N[C@@H]1c1ccc(F)cc1 + CNC(=O)c1ccc(Nc2nc(OC3CCCC3)c3c(-c4ccc5nc(C)oc5c4)c[nH]c3n2)c(OC)c1
pIC50 (second compound 0.0316 µM): < 7.00
pIC50 (second compound 0.1 µM): < 7.00
pIC50 (second compound 0.316 µM): < 7.00
pIC50 (second compound 1 µM): < 7.00
pIC50 (second compound 3.16 µM): < 7.00
pIC50 (second compound 10 µM): < 7.00
viability, T/C (second compound 0.0316 µM, first compound 0.000316 µM): 91.9%
viability, T/C (second compound 0.0316 µM, first compound 0.001 µM): 94.1%
viability, T/C (second compound 0.0316 µM, first compound 0.00316 µM): 97.4%
viability, T/C (second compound 0.0316 µM, first compound 0.01 µM): 105%
viability, T/C [1]: 98%
viability, T/C [2]: 90.8%
viability, T/C (second compound 0.1 µM, first compound 0.000316 µM): 89.3%
viability, T/C (second compound 0.1 µM, first compound 0.001 µM): 97.8%
viability, T/C (second compound 0.1 µM, first compound 0.00316 µM): 99%
viability, T/C (second compound 0.1 µM, first compound 0.01 µM): 105%
viability, T/C [3]: 89.7%
viability, T/C [4]: 82.4%
viability, T/C (second compound 0.316 µM, first compound 0.000316 µM): 79.6%
viability, T/C (second compound 0.316 µM, first compound 0.001 µM): 79.5%
viability, T/C (second compound 0.316 µM, first compound 0.00316 µM): 81.2%
viability, T/C (second compound 0.316 µM, first compound 0.01 µM): 77.9%
viability, T/C [5]: 89%
viability, T/C [6]: 73%
viability, T/C (second compound 1 µM, first compound 0.000316 µM): 74.7%
viability, T/C (second compound 1 µM, first compound 0.001 µM): 75.8%
viability, T/C (second compound 1 µM, first compound 0.00316 µM): 79%
viability, T/C (second compound 1 µM, first compound 0.01 µM): 66.6%
viability, T/C [7]: 77%
viability, T/C [8]: 63.3%
viability, T/C (second compound 3.16 µM, first compound 0.000316 µM): 78.4%
viability, T/C (second compound 3.16 µM, first compound 0.001 µM): 74.3%
viability, T/C (second compound 3.16 µM, first compound 0.00316 µM): 69.8%
viability, T/C (second compound 3.16 µM, first compound 0.01 µM): 67.4%
viability, T/C [9]: 59.1%
viability, T/C [10]: 66%
viability, T/C (second compound 10 µM, first compound 0.000316 µM): 70%
viability, T/C (second compound 10 µM, first compound 0.001 µM): 69.7%
viability, T/C (second compound 10 µM, first compound 0.00316 µM): 60.8%
viability, T/C (second compound 10 µM, first compound 0.01 µM): 62.9%
viability, T/C [11]: 64.2%
viability, T/C [12]: 57.9%

O=c1[nH]cc(F)c(=O)[nH]1 + CN1CCN(c2cc(C(=O)Nc3cc4cc(-c5cnn(C)c5)ccc4cn3)ccn2)CC1
pIC50 (second compound 0.0316 µM): < 5.00
pIC50 (second compound 0.1 µM): < 5.00
pIC50 (second compound 0.316 µM): < 5.00
pIC50 (second compound 1 µM): > 7.50
pIC50 (second compound 3.16 µM): > 7.50
pIC50 (second compound 10 µM): > 7.50
viability, T/C [1]: 99.3%
viability, T/C [2]: 108%
viability, T/C [13]: 102%
viability, T/C [14]: 112%
viability, T/C [15]: 99.6%
viability, T/C [16]: 82%
viability, T/C [3]: 106%
viability, T/C [4]: 114%
viability, T/C [17]: 115%
viability, T/C [18]: 110%
viability, T/C [19]: 114%
viability, T/C [20]: 81.8%
viability, T/C [5]: 90%
viability, T/C [6]: 89.7%
viability, T/C [21]: 87.6%
viability, T/C [22]: 91.8%
viability, T/C [23]: 101%
viability, T/C [24]: 62%
viability, T/C [7]: 1.1%
viability, T/C [8]: 1.31%
viability, T/C [25]: 0.78%
viability, T/C [26]: 0.63%
viability, T/C [27]: 0.79%
viability, T/C [28]: 1.51%
viability, T/C [9]: 1.14%
viability, T/C [10]: 2.13%
viability, T/C [29]: 1.09%
viability, T/C [30]: 1.94%
viability, T/C [31]: 1.84%
viability, T/C [32]: 2%
viability, T/C [11]: 1.01%
viability, T/C [12]: 2.05%
viability, T/C [33]: 2.31%
viability, T/C [34]: 1.29%
viability, T/C [35]: 1.06%
viability, T/C [36]: 1.21%

COc1ccc([C@@H](O)c2cc(-c3ncnc4cc(N5CCOCC5)ccc34)c(F)cc2Cl)nn1 + CN1CCN(c2cc(C(=O)Nc3cc4cc(-c5cnn(C)c5)ccc4cn3)ccn2)CC1
pIC50 (second compound 0.0316 µM): < 5.00
pIC50 (second compound 0.1 µM): < 5.00
pIC50 (second compound 0.316 µM): 5.09
pIC50 (second compound 1 µM): > 7.50
pIC50 (second compound 3.16 µM): > 7.50
pIC50 (second compound 10 µM): > 7.50
viability, T/C [1]: 106%
viability, T/C [2]: 109%
viability, T/C [13]: 111%
viability, T/C [14]: 119%
viability, T/C [15]: 109%
viability, T/C [16]: 82%
viability, T/C [3]: 114%
viability, T/C [4]: 113%
viability, T/C [17]: 113%
viability, T/C [18]: 115%
viability, T/C [19]: 100%
viability, T/C [20]: 74.6%
viability, T/C [5]: 79%
viability, T/C [6]: 81.2%
viability, T/C [21]: 69.7%
viability, T/C [22]: 65%
viability, T/C [23]: 61.3%
viability, T/C [24]: 47.2%
viability, T/C [7]: 0.59%
viability, T/C [8]: 0.61%
viability, T/C [25]: 0.67%
viability, T/C [26]: 0.97%
viability, T/C [27]: 0.95%
viability, T/C [28]: 1.67%
viability, T/C [9]: 1.12%
viability, T/C [10]: 1.03%
viability, T/C [29]: 0.98%
viability, T/C [30]: 1.02%
viability, T/C [31]: 1.01%
viability, T/C [32]: 1.54%
viability, T/C [11]: 1.19%
viability, T/C [12]: 1.26%
viability, T/C [33]: 1.23%
viability, T/C [34]: 1.29%
viability, T/C [35]: 2.19%
viability, T/C [36]: 3.09%
